From US12729194B2, “Compounds for the treatment of human immunodeficiency virus” (priority 2019, dated 2026)

Key:
[1] = system: envelope glycoproteins of the amphotropic murine leukemia virus (AMLV); experiment: microbe, parasite or virus in culture; format: cell-based; conditions: Cf2Th-CD4/CCR5 target cells, 48 hours, luciferase, specificity control, read-out: 50% inhibitory concentration (IC50), AMLV
[2] = system: HIV-1AD8 Env on VLPs; experiment: Shedding of gp120 from VLP Env; conditions: 4° C. and 37° C., 4 days, no detergent
Experimental: Shedding of gp120 from VLP Env: The effect of compounds on the spontaneous shedding of gp120 from VLP Env was evaluated. VLPs with the wild-type HIV-1AD8 Env were prepared from the supernatants of A549-Gag/Env cells, as described above. The VLPs were suspended in PBS, to which was added either DMSO or a compound described herein. An aliquot of the VLP suspension in PBS/DMSO was processed as described below to serve as a Day 0 control. The VLP suspensions were incubated for 4 days at 4° C., room temperature or 37° C. (with gentle rocking). Then the VLPs were pelleted (100,000×g for 30 min at 4° C.). The pellets and supernatants were boiled in LDS sample buffer and analyzed by Western blotting with either 1:2000 goat anti-gp120 polyclonal antibody (ThermoFisher) and HRP-conjugated rabbit anti-goat IgG antibody, or with 1:5000 rabbit anti-Gag p55/p24/p17 antibody (Abcam) and HRP-conjugated goat anti-rabbit IgG antibody (Abcam).

[3] = system: HIV-1 with HIV-1AD8 Env; experiment: microbe, parasite or virus in culture; format: cell-based; conditions: Human immunodeficiency virus 1; Cf2Th-CD4/CCR5 target cells, 48 hours, luciferase; means and standard errors of four experiments; read-out: 50% inhibitory concentration (IC50), AD8
[4] = system: HIV-1 with HIV-1JR-FL Env; experiment: microbe, parasite or virus in culture; format: cell-based; conditions: Human immunodeficiency virus 1; Cf2Th-CD4/CCR5 target cells, 48 hours, luciferase; means and standard errors of four experiments; read-out: 50% inhibitory concentration (IC50), JR-FL
[5] = system: HIV-1 with JR-FL S375W Env; format: cell-based; conditions: Cf2Th-CD4/CCR5 target cells, 48 hours, luciferase; read-out: 50% inhibitory concentration (IC50), JR-FL S375W
[6] = system: HIV-1AD8 Env on VLPs; experiment: Reversibility of compound effects on VLP Env conformation (19b antibody recognition after washing)
Experimental: Characterization of VLP-associated Env: To prepare VLPs with HIV-1AD8 Env, 150-mm dishes of 30-40% confluent A549-Gag/Env cells were seeded and, on the following day, treated with 2 μg/ml doxycycline. Approximately 72 hours after induction, cell supernatants were harvested and cleared by low-speed centrifugation (500×g for 15 minutes at 4° C.) and 0.45-μ filtration. VLPs were pelleted by centrifugation at 100,000×g for one hour at 4° C. The resuspended VLP preparation was clarified by low-speed centrifugation. BMS-806 and compounds described herein were added to the clarified VLP-containing suspensions. In some cases, the VLP-compound mixtures were irradiated with a 100-watt, 365-nm ultraviolet (UV) lamp for 10 minutes at room temperature. For all UV studies, exposure of the samples to visible light was minimized.
For studies of the reversibility of effects, the compounds were added to the VLPs and mixed for several seconds at room temperature. Then the VLPs were pelleted (20,000×g for 30 minutes at 4° C.) twice, washing with 1.5 ml PBS with 2% DMSO. The pelleted VLPs were resuspended in 1 ml PBS with 2% DMSO and incubated at room temperature for various lengths of time (20 minutes—3 weeks). Control VLPs were incubated in the continued presence of the compounds at room temperature for the same length of time. Then the VLPs were pelleted (20,000×g for 30 minutes at 4° C.) and the pellet incubated with 1.5% Triton X-100 for 30 minutes at 4° C. The VLP lysates were centrifuged (20,000×g for 30 minutes at 4° C.) and the supernatants were incubated with antibodies (10 μg/ml) in a 50-μl volume with 25 mg/ml of Protein A-Sepharose beads for one hour at 4° C. The beads were pelleted (1000 rpm for 1 minute at room temperature) and washed three times with 1 ml wash buffer with 1% Triton X-100. The beads were suspended in NuPAGE LDS Sample Buffer (ThermoFisher), boiled and analyzed by Western blot, as described above.
The BMS-806-induced decrease in binding of the 19b anti-V3 antibody can be used as an indicator of BMS-806-Env binding, allowing estimation of the stability of the Env-compound complex. BMS-806 and BMS-529 were incubated with the HIV-1AD8 Env on VLPs. The VLPs were then washed and incubated at room temperature for various lengths of time in a buffer with (+/+) or without (+/−) compound. After this incubation, Env conformation was assessed using the 19b anti-V3 antibody, the 2G12 antibody (the binding of which is not affected by BMS-806), and a negative control human immunoglobulin (hIgG) preparation. 19b recognition of Env in the washed samples (+/−) was compared with those in the samples continuously incubated with the compound (+/+) and the untreated samples (−) (FIG. 4). […] Despite this slow rate of dissociation of compounds described herein from Env, the binding and the consequent effects of these compounds on Env conformation appear to be reversible.

[7] = system: HIV-1 with BG505 Env; experiment: microbe, parasite or virus in culture; format: cell-based; conditions: Human immunodeficiency virus 1; Cf2Th-CD4/CCR5 target cells, 48 hours, luciferase; means and standard errors of four experiments; read-out: 50% inhibitory concentration (IC50), BG505

Row | Compound | IC50 [1] | Spontaneous shedding of gp120 into the VLP supernatant [2] | IC50 [3] | IC50 [4] | IC50 [5] | Durability / reversibility of Env conformational effects (in words) ([6]; after washing) | IC50 [7] | Conformational effect on 19b binding after washing ([6]; twenty-four hours after washing, room temperature)
1 | COc1ccc(-c2ccc(CNC(=O)c3c(F)c(F)c(N=[N+]=[N-])c(F)c3F)o2)c2[nH]cc(C(=O)C(=O)N3CCN(C(=O)c4ccccc4)CC3)c12 [AEG-II-168] | > 100 nM | decreased the shedding of gp120 | 2.8 nM | 1.5 nM | > 100 nM | at least three weeks | 0.22 nM | –
2 | COc1ccnc2[nH]cc(C(=O)C(=O)N3CCN(C(=O)c4ccccc4)C[C@H]3C)c12 [BMS-806, reference compound] | > 100 nM | decreased the shedding of gp120 | 0.4 nM | 1.6 nM | > 100 nM | – | 0.8 nM | much less evident
